Data as given in patent US20260207570A1, “OPTIMIZED DOSING OF LERIGLITAZONE” (MINORYX THERAPEUTICS S.L., priority 2022, published 2026).
Read-outs that look alike come from different tables or passages of the source.

How the values were obtained:
[1] = Phase 1 single ascending dose (SAD) pharmacokinetics in healthy volunteers; type: in vivo, human; conditions: for half-life / Tmax / Cmax / AUC(0-t) / AUC: male, human, plasma, oral; for Tmax: read-out: Tmax; for Cmax: plasma total, read-out: Cmax; for AUC(0-t) / AUC: geometric mean; for AUC: read-out: AUC
Experimental: (§1) Study design: A phase 1, randomized, double blind, placebo-controlled, single-center clinical study in 33 male healthy volunteers (HV) (19-54 years, 63.2-95.7 Kg) was conducted with leriglitazone HCl and divided in two parts: a single ascending dose (SAD) with three dose levels (30, 90 and 270 mg) in fasted conditions, followed with two dose levels (90 and 270 mg) in fed conditions; a multiple ascending dose (MAD) with a double-blind, parallel-design with two dose levels (135 and 270 mg) for 8 days and a separate cohort of subjects in an open-label parallel design with two dose levels (135 and 270 mg) including cerebrospinal fluid (CSF) collection on day 8. In the fasted conditions a fasting period of at least 4 hours was required before obtaining plasma samples. The food effect (FE) was assessed by comparing fasted with fed conditions (dosing after a high-fat breakfast per FDA definition with a calculated caloric content of 918 kcal). In the MAD part (fed) the medication was taken before a normal breakfast. Leriglitazone HCl was supplied by ChemConnection and an oral suspension of leriglitazone (20% w/v kleptose, 2% ethanol in 100 mM phosphate buffer pH=7.8) at 6 mg/ml was used in the study.
(§2) Blood, Urine and CSF sampling: In the SAD, blood samples were drawn at the following time points: pre-dose and 0.25, 0.5, 0.75, 1, 1.5, 2, 2.5, 3, 4, 5, 6, 8, 10, 12, 16, 24, 36, 48, 72, 96 and 120 hours post-dose. Urine was collected at pre-dose (within 12 hours prior to dosing) and over 0-6, 6-12, 12-24, 24-36, 36-48 hours post-dose collection intervals. In the MAD, blood samples were collected on day 1 at pre-dose and 0.25, 0.5, 0.75, 1, 1.5, 2, 2.5, 3, 4, 5, 6, 8, 10, 12, and 16 hours post-dose and at pre-dose and at 4 hours post-dose on day 2 to day 7, and on day 8 at pre-dose and 0.25, 0.5, 0.75, 1, 1.5, 2, 2.5, 3, 4, 5, 6, 8, 10, 12, 16, 24, 36, 48, 72, 96 and 120 hours post-dose. CSF were taken on day −1 and on day 8, at 4 hours post-dose.
(§3) Pharmacokinetic parameter calculation: PK parameters (Cmax, Tmax, t1/2, AUC0-t, CL/F, Vz/F, AUC0-t, RAUC, RCmax) were estimated using non-compartmental analysis (NCA) (Phoenix WinNonlin® Version 6.3).
(§4) Statistical analysis: Descriptive statistics for all relevant PK parameters: n, mean, minimum, median, maximum, geometric mean, and coefficient of variation (CV %); analysis of variance on Cmax and AUC to determine dose proportionality and food effect (FE).

[2] = Phase 1 multiple ascending dose (MAD) pharmacokinetics with CSF collection in healthy volunteers; type: in vivo, human; conditions: for accumulation RCmax: day 8 vs day 1; for Kp at 4 h / concentration at 4 h / Tmax / Vd/F / Cmax: male, human, oral; for Kp at 4 h: CSF and plasma; for Tmax: Median, read-out: Tmax; for Vd/F: read-out: Vz/F; for Cmax: plasma total, geometric mean, read-out: Cmax
Experimental: as §1, §2, §3, §4
The ratio of unbound leriglitazone concentration in brain to unbound concentration in plasma (Kpu,u; Cb,u/Cp,u) was calculated dividing the unbound CSF Cmax by the unbound plasma Cmax. Fractions unbound in plasma (fu,p) to obtain the unbound Cmax values were already reported. Rodriguez-Pascau, L. et al., Sci. Transl. Med. 13, eabc0555 (2021).

[3] = plasma, 135 mg, 135 mg MD Day 1, n = 8
[4] = plasma, 135 mg, 135 mg MD Day 8, n = 8
[5] = plasma, 270 mg, 270 mg MD Day 1, n = 8
[6] = plasma, 270 mg, 270 mg MD Day 8, n = 7

With `CC(=O)c1ccc(CCOc2ccc(CC3SC(=O)NC3=O)cc2)nc1` (stereo not shown) [Compound M3, 5-[[4-[2-[5-acetylpyridin-2-yl]ethoxy]phenyl]methyl]-1,3-thiazolidine-2,4-dione] the “dose excreted in urine as free analyte” value ([1]; 48-hour collection period) was under 0.01%, the “dose excreted in urine as the analyte, mostly in a conjugated state” value ([1]; 48-hour collection period) was 0.3% and the half-life ([1]; 30 mg, M3 section, SAD 30 mg fasted, n = 6, geometric mean (CV %), read-out: t1/2 (converted)) was 22.1 h. It also gave a Tmax ([1]; 30 mg, SAD 30 mg fasted, n = 6, Median) of 0.63 h, a Cmax ([1]; 30 mg, SAD 30 mg fasted, n = 6, geometric mean (CV %)) of 828 ng/mL and a half-life ([1]; 90 mg, M3 section, SAD 90 mg fasted, n = 6, geometric mean (CV %), read-out: t1/2 (converted)) of 23.2 h. It also gave a half-life ([1]; 90 mg, M3 section, SAD 90 mg fed, n = 3, geometric mean (CV %), read-out: t1/2 (converted)) of 25.7 h, a Tmax ([1]; 90 mg, SAD 90 mg fasted, n = 6, Median) of 0.63 h and an AUC(0-t) ([1]; 90 mg, SAD 90 mg fasted, n = 6) of 59400 ng·h/mL. The AUC ([1]; 90 mg, SAD 90 mg fasted, n = 6) was 61800 ng·h/mL, the Cmax ([1]; 90 mg, SAD 90 mg fasted, n = 6, geometric mean (CV %)) was 2550 ng/mL and the Tmax ([1]; 90 mg, SAD 90 mg fed, n = 3, Median) was 5 h. The AUC(0-t) ([1]; 90 mg, SAD 90 mg fed, n = 3) was 59900 ng·h/mL, the AUC ([1]; 90 mg, SAD 90 mg fed, n = 3) was 62200 ng·h/mL and the Cmax ([1]; 90 mg, SAD 90 mg fed, n = 3, geometric mean (CV %)) was 1980 ng/mL. It also gave a half-life ([1]; 270 mg, M3 section, SAD 270 mg fasted, n = 5, geometric mean (CV %), read-out: t1/2 (converted)) of 21.6 h, a half-life ([1]; 270 mg, M3 section, SAD 270 mg fed, n = 5, geometric mean (CV %), read-out: t1/2 (converted)) of 22.7 h and a Tmax ([1]; 270 mg, SAD 270 mg fasted, n = 5, Median) of 1.5 h. It also gave a Tmax ([1]; 270 mg, SAD 270 mg fed, n = 5, Median) of 4 h, an AUC(0-t) ([1]; 270 mg, SAD 270 mg fed, n = 5) of 155000 ng·h/mL and an AUC ([1]; 270 mg, SAD 270 mg fed, n = 5) of 159000 ng·h/mL. It also gave a Cmax ([1]; 270 mg, SAD 270 mg fed, n = 5, geometric mean (CV %)) of 5320 ng/mL, a Tmax ([1]; 270 mg, SAD fed conditions, 90 and 270 mg) of 3 to 6 h and a half-life ([1]; SAD, read-out: Half-lives) of 22 to 23 h. For the same compound, the CL/F ([2]; 135 mg MD Day 1, n = 8, geometric mean (CV %)) was 3.69 (29.4) L./h, the CL/F ([2]; 135 mg MD Day 8, n = 8, geometric mean (CV %)) was 2.15 (27.6) L./h and the CL/F ([2]; 270 mg MD Day 1, n = 8, geometric mean (CV %)) was 3.29 (26.4) L./h. The “Plasma C4h” value ([2]; 270 mg MD Day 8, 4 hours post-dose, total, geometric mean (CV %)) was “:5673 (34.2) ng/mL”, the CL/F ([2]; 270 mg MD Day 8, n = 7, geometric mean (CV %)) was 2.13 (25.9) L./h and the “increase of CSF concentration on doubling the dose” value ([2]; 270 mg vs 135 mg, day 8, 4 hours post-dose) was 1.7 fold. The “accumulation RCmax” value ([2]; MAD 135 mg) was 1.57, the “accumulation RAUC” value ([2]; MAD 270 mg dose) was 1.63 and the “accumulation RCmax” value ([2]; MAD 270 mg) was 1.69. The brain penetration ([2]; judged from CSF to plasma concentrations) was “limited”, the Kp at 4 h ([2]; 135 mg MD Day 8, geometric mean (CV %), read-out: CSF/Plasma) was 0.004 and the Kp at 4 h ([2]; 270 mg MD Day 8, geometric mean (CV %), read-out: CSF/Plasma) was 0.004. It also gave a Kp at 4 h ([2]; day 8, 4 hours post-dose, read-out: total concentrations in CSF as share of total plasma concentrations) of 0.004, a concentration at 4 h ([2]; CSF, 135 mg MD Day 8, 4 hours post-dose, total, geometric mean (CV %), read-out: CSF C4h) of 13 ng/mL and a concentration at 4 h ([2]; CSF, 270 mg MD Day 8, 4 hours post-dose, total, geometric mean (CV %), read-out: CSF C4h) of 22 ng/mL. It also gave a Tmax [2, 3] of 3.5 h, a Vd/F ([2]; plasma, 135 mg, 135 mg MD Day 1, n = 8, geometric mean (CV %)) of 111 L and a Cmax [2, 3] of 2470 ng/mL. For the same compound, the Tmax [2, 4] was 2.75 h, the Vd/F ([2]; plasma, 135 mg, 135 mg MD Day 8, n = 8, geometric mean (CV %)) was 63.5 L and the Cmax [2, 4] was 4150 ng/mL. For the same compound, the Tmax [2, 5] was 3.5 h, the Vd/F ([2]; plasma, 270 mg, 270 mg MD Day 1, n = 8, geometric mean (CV %)) was 103 L and the Cmax [2, 5] was 5360 ng/mL. It also gave a Tmax [2, 6] of 2.5 h, a Vd/F ([2]; plasma, 270 mg, 270 mg MD Day 8, n = 7, geometric mean (CV %)) of 69.3 L and a Cmax [2, 6] of 8030 ng/mL. For the same compound, the concentration at 4 h ([2]; plasma, 135 mg MD Day 8, 4 hours post-dose, total, geometric mean (CV %), read-out: Plasma C4h) was 3600 ng/mL.
